Consider three compounds from BindingDB's records for doi:10.1021/cc990074a (Ariad Pharmaceuticals, 2000).

For this test, the target named is Proto-oncogene tyrosine-protein kinase Src (Homo sapiens). As to the kind of experiment: Compounds were tested for binding to Src SH2 using a fluorescence polarization binding assay according to methods previously described. IC50 values were assigned to individual compounds according to their competitive binding affinity versus a high-affinity peptide probe, fluorescein-pTyr-pTyr-pTyr-Ile-Glu-NH2. In general terms: Polarisation of emitted light reports the rotation of a fluorescent probe.
As a reminder, the IC50 is the midpoint of a concentration-inhibition curve. Read a low IC50 as inhibition by little substance. The compound `COc1ccc(C(C)NC(=O)C(Cc2ccc(OP(=O)(O)O)cc2)NC(C)=O)cc1C(N)=O` (stereo not drawn) [Src SH2 inhibitor, 1b] showed an IC50 of 37 µM.
The value for `NC(=O)c1cc(CNC(=O)c2ccc(OP(=O)(O)O)cc2)ccc1OCC1CCCCC1` [Src SH2 inhibitor, 3] was 6.5 µM; that for `O=C(NCc1ccc(OCC2CCCCC2)cc1)c1ccc(OP(=O)(O)O)cc1` [Src SH2 inhibitor, 4] was greater than 100 µM.
